The text below walks through data of publication PMC6212553, “Baicalein Enhances the Oral Bioavailability and Hepatoprotective Effects of Silybin Through the Inhibition of Efflux Transporters BCRP and MRP2” (Frontiers in Pharmacology, 2018).

Details of data set [1]: method as in Wen et al., 2008. To be noted: after oral administration; ref Wen et al., 2008; cited from earlier work.
A short description of data set [2]: Bidirectional transport of silybin across Caco-2 cell monolayers. It counts as in vitro ADME, Human. To be noted: human; Caco-2, silybin 2.5, 5 and 10 μM, with baicalein 5 μM. The procedure: Human colon epithelial cell line (Caco-2) was purchased from American Type Culture Collection (Manassas, VA, United States) and frozen at -80°C. Wild type MDCK II, MDR1-MDCK II, BCRP-MDCK II, and MRP2-MDCK II cells were kindly supplied by the Netherlands Cancer Institute (Amsterdam, Netherlands). Transport study was carried out with Caco-2 cells, and MDCK II cells were transfected using a previously established method with slight modifications ([Yuan et al., 2017]). The Caco-2 cells were cultured at 37°C/5% CO2 in Dulbecco's modified Eagle's medium (DMEM) supplemented with 10% fetal bovine serum, 1% nonessential amino acids, and 1% penicillin-streptomycin. The Caco-2 cells were seeded onto polyester filter membranes in a 12-well Transwell® plate (Corning Costar Co., NY, United States) with 0.6 × 10^5 cells/cm^2. The monolayer cells were used for transport assays between 21 and 23 days. The MDCKII cells were seeded on transwell plates with a density of 2.0 × 10^5 cells/cm^2 and grown for 4-5 days to form a confluent monolayer. Bidirectional transport assays for Caco-2 and MDCK II cells were performed by adding silybin (10 μM) in assay buffer into either the apical (AP; A-to-B) or basolateral (BL; […] For inhibition studies, Caco-2 or MDCK II cell monolayers in both apical and basolateral chambers were preincubated with the inhibitor for 30 min. The fluorescence intensity of the sample collected from the AP or BL side was immediately detected in a 96-well black plate by the Microplate UV/VIS spectrophotometer (TECAN Infinite […], Männedorf, Switzerland). For liquid chromatography tandem-mass spectrometry (LC-MS/MS) analysis, the sample (100 μl) was mixed with methanol (50 μl) containing internal standard (25 ng/ml) and was stored at -80°C. The formula for calculating apparent permeability coefficient (Papp) values is as follows: (1) […] where dQ/dt (mM/s) represents the rate of permeation of the drug across the cells, C0 (mM) refers to the concentration in the donor compartment at time zero calculated from dosing solution, and A (cm^2) refers to the area of the cell monolayer. Papp (B-A) is the Papp value measured in the B to A direction, and Papp (A-B) is the Papp value measured in the A to B direction. The efflux ratio is given as ER = Papp (B to A)/Papp (A to B).
Background: Passage across Caco-2 layers is used to estimate intestinal permeability.

The subject of data set [3] is CCl4-induced liver injury model. Briefly: CCl4-induced acute liver injury in rats. It counts as in vivo, SD rats. Set-up: Nerosis (histologic score, liver H&E) / Haemorrhage (histologic score, liver H&E) / Inflammation (histologic score, liver H&E) / Steatosis (histologic score, liver H&E): scale not given here. The procedure:
Male SD rats were randomly divided into seven groups: […] (2) Group II, given blank vehicle p.o. for 7 days; (3) Group III, treatment with silybin (100 mg/kg bodyweight, p.o.) for 7 days; […] After 24 h of CCl4 treatment, all rats were sacrificed under ether anesthesia. Blood samples were collected from the abdominal aorta for biochemical estimations. The liver was immediately removed and weighed with a large portion of the liver frozen in liquid nitrogen. The pathological liver changes were examined by hematoxylin and eosin (H&E) staining, which was performed by a pathologist who was blinded to this study. The serum levels of ALT, AST, AKP, and SOD as well as the cytokines TNF- α, IL-6, and IL-1β were detected by the assay kit, according to the manufacturer’s instructions.

Details of data set [4]: method as in Pradhan and Girish, 2006. The settings on record: doses <10 g/d; ref Pradhan and Girish, 2006; cited from earlier work.
Where [5] appears, read: 100 mg/kg p.o. 7 days, single agent, CCl4 on day 7.
The mark [6] stands for this setting: silybin 100 mg/kg for 7 consecutive days, P < 0.01.

Molecules are shown by their SMILES.

As to `COc1cc(C2Oc3cc([C@H]4Oc5cc(O)cc(O)c5C(=O)[C@@H]4O)ccc3OC2CO)ccc1O` (some centres unmarked) [silybin, Silybin], in data set [1], the glucuronide conjugated silybin is listed as 55% and the sulfate conjugated silybin is listed as 28%. Besides, the efflux ratio (commonly a quotient of directional permeabilities that is used to spot active efflux) at 180 min in data set [2] was about 2. Further, in data set [3] (setting [5]), the “Haemorrhage (histologic score, liver H&E)” value is recorded as 2.2±0.8; the “Inflammation (histologic score, liver H&E)” value was 2.0±0.6; the “Nerosis (histologic score, liver H&E)” value turned out to be 2.7±0.5; the “Steatosis (histologic score, liver H&E)” value is on record as 2.2±0.8. Moreover, the “CCl4-induced increase of liver weight and ratio of liver to body weight” value in data set [3] (p.o. 7 days before CCl4, p < 0.01) is “abrogated”. In data set [3] (setting [6]), the “CCl4-induced increase in serum IL-1β, IL-6, and TNF-α levels” value is “significantly prevented”; the “CCl4-induced increase in the serum activities of ALT, AST, and AKP” value is given as “significantly prevented”. For the same molecule, the side effects result in data set [4] is given as “no significant side effects”.
